Patent US8044098B2, “Use of hydroxybenzoic acids and their esters and analogues for preventing or treating virus infection” (Shenghua Guangzhou Pharmaceutical Science & Technology Co., …, priority 2005, dated 2011)

How the values were obtained:
[1] = tested on: secretion of HBeAg by 2.2.15 cells; test: Inhibition of secretion of HBeAg by Hepatitis B 2.2.15 cell line; type: cell-based, HBV; conditions: 1 μmol/ml
Source text: Hepatitis B 2.2.15 cell line was transfected by HBV DNA (purchased from Institute of Biochemistry and Cell Biology of Shanghai Institute for Biological Sciences or the National Center for Drug Screening) and used as the cell model for screening anti-HBV drug compounds (See Chinese Journal Of Integrated Traditional and Western Medicine on Liver Diseases, 2004, 14(3): 158). The cell culture medium DMEM (GIBCO Company), bovine serum (Hangzhou Siji Qing Biochemical Manufacturer), G418 (GIBCO Company), 3-(4,5-dimethylthiazol-2-yl)-2,5-diphenyltetrazoliumbromide (Sigma), HBsAg and HBeAg diagnostic kit (Shanghai Kehua Bio-engineering Co., Ltd).
The test compounds listed in Table 3 below were dissolved in a mixture containing 20 ml 1,2-propylene glycol and 15 ml Tween-80 and diluted with sterile saline water to 2 μmol/ml of the test compound. Then it was mixed with the cell culture medium at equal volume to obtain a solution containing 1 μmol/ml of the tested compound. Cells at the concentration of 1×10^5 cells per milliliter were inoculated to a 24-well plate at 1 ml/well. Supernatant from the cell culture mixture was collected three days later for testing.

[2] = tested on: cervical erosion; test: Clinical use of propyl gallate in treating cervical erosion; type: in vivo, human; conditions: for total effectiveness rate: recovered or improved
Experimental: 4 g propyl gallate was mixed with 40 ml 1,2-propylene glycol and heated to let the ingredients to dissolve. Sterile distilled water was added to the mixture to reach a final volume of 100 ml. 28 married female patients of 22-50 years old were selected for the test. […] The patients were also tested for the absence of vaginal yeast infection or trichomoniasis or sexually transmitted diseases. The patients were randomly divided into two groups of 14 patients each. One group was treated with propyl gallate micro emulsion, the other group with interferon-α suppository (made by Wuhan Tian'ao Pharmaceutical Co.). The treatment was started three days after a patient's last menstrual period. The propyl gallate micro emulsion was applied to the mucosa surfaces with cervical erosion every other day for 30 days. Out of the group treated with propyl gallate, 7 patients had the medicine applied to them by medical professionals at a hospital, the other 7 patients applied the medicine by themselves at home. On the other hand, an interferon-α suppository was used by each patient in the control group once a day before sleep for 30 days. “Recovered”: the cervical skin became smooth, cervical erosion had disappeared; […] The effectiveness of treatment was calculated based on the number of patients that were “recovered” or “improved”. Among patients of the propyl gallate group who were treated at the hospital, the “recovered” rate was about 81%, the “improved” rate was about 15%, and the total effectiveness rate was about 96%. Among patients of the propyl gallate group who were treated at home, the “recovered” rate was about 32%, the “improved” rate was about 55%, and the total effectiveness rate was about 87%. Among patients treated with interferon-α suppository, the “recovered” rate was about 22%, the “improved” rate was about 57%, and the total effectiveness rate was about 79%.

[3] = patients treated at home (7), every other day for 30 days

## CCCOC(=O)c1cc(O)c(O)c(O)c1 [Propyl gallate]
[1]
  effect on the secretion of HBeAg by the 2.2.15 cells (in words): had inhibition effect
  inhibition of HBeAg secretion compared with gallic acid and 3,4-dihydroxybenzoic acid: more effective
[1]; 2.2.15 cells, supernatant collected three days later
  HBeAg Inhibition Rate: 12.04%
[2]; [3]
  “improved” rate: about 55%
  “recovered” rate: about 32%
[2]; patients treated at home (7)
  total effectiveness rate: about 87%
[2]; patients treated at the hospital (7), 4% micro emulsion every other day for 30 days
  “recovered” rate: about 81%
[2]; patients treated at the hospital (7), every other day for 30 days
  “improved” rate: about 15%
[2]; patients treated at the hospital (7)
  total effectiveness rate: about 96%
[2]; patients treated at the hospital, P<0.05
  effectiveness compared with interferon-α suppository: significantly better
